Results: PubChem BioAssay (NCI)
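The compound was tested at five concentrations on cells cultured in 96-well plates, with a 48-hour exposure period. GI50 = concentration required for 50% inhibition of growth. TGI denotes the concentration required for complete inhibition of growth.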

What was measured:
Experiment in all cases: growth of human tumour cells (NCI), 48 h
SF-295 CNS = tested on: SF-295 CNS
UO-31 renal = tested on: UO-31 renal
OVCAR-3 ovarian = tested on: OVCAR-3 ovarian
HS 578T breast = tested on: HS 578T breast
UACC-62 melanoma = tested on: UACC-62 melanoma
HT29 colon = tested on: HT29 colon
HCT-15 colon = tested on: HCT-15 colon
SK-OV-3 ovarian = tested on: SK-OV-3 ovarian
CCRF-CEM leukemia = tested on: CCRF-CEM leukemia
OVCAR-5 ovarian = tested on: OVCAR-5 ovarian
RPMI-8226 leukemia = tested on: RPMI-8226 leukemia
CAKI-1 renal = tested on: CAKI-1 renal
MOLT-4 leukemia = tested on: MOLT-4 leukemia
SF-268 CNS = tested on: SF-268 CNS
SR leukemia = tested on: SR leukemia
SNB-19 CNS = tested on: SNB-19 CNS
T-47D breast = tested on: T-47D breast
HOP-62 NSCLC = tested on: HOP-62 NSCLC
SN12C renal = tested on: SN12C renal
SF-539 CNS = tested on: SF-539 CNS
M14 melanoma = tested on: M14 melanoma
LOX IMVI melanoma = tested on: LOX IMVI melanoma
BT-549 breast = tested on: BT-549 breast
SK-MEL-2 melanoma = tested on: SK-MEL-2 melanoma
IGROV1 ovarian = tested on: IGROV1 ovarian
NCI-H23 lung = tested on: NCI-H23 lung
786-0 renal = tested on: 786-0 renal
MALME-3M melanoma = tested on: MALME-3M melanoma
A549 NSCLC = tested on: A549 NSCLC
KM12 colon = tested on: KM12 colon
SK-MEL-5 melanoma = tested on: SK-MEL-5 melanoma
NCI-H460 lung = tested on: NCI-H460 lung
HCC-2998 colon = tested on: HCC-2998 colon
NCI/ADR-RES ovarian = tested on: NCI/ADR-RES ovarian
NCI-H522 lung = tested on: NCI-H522 lung
SK-MEL-28 melanoma = tested on: SK-MEL-28 melanoma
OVCAR-8 ovarian = tested on: OVCAR-8 ovarian
TK-10 renal = tested on: TK-10 renal
A498 renal = tested on: A498 renal
U251 CNS = tested on: U251 CNS
K-562 leukemia = tested on: K-562 leukemia
UACC-257 melanoma = tested on: UACC-257 melanoma
EKVX NSCLC = tested on: EKVX NSCLC
COLO 205 colon = tested on: COLO 205 colon
MDA-MB-231 breast = tested on: MDA-MB-231 breast
MCF7 breast = tested on: MCF7 breast
ACHN renal = tested on: ACHN renal
RXF 393 renal = tested on: RXF 393 renal
SNB-75 CNS = tested on: SNB-75 CNS
HCT-116 colon = tested on: HCT-116 colon
NCI-H226 lung = tested on: NCI-H226 lung
HOP-92 NSCLC = tested on: HOP-92 NSCLC
SW-620 colon = tested on: SW-620 colon
MDA-MB-435 = tested on: MDA-MB-435
DU-145 prostate = tested on: DU-145 prostate
HL-60(TB) leukemia = tested on: HL-60(TB) leukemia
PC-3 prostate = tested on: PC-3 prostate
OVCAR-4 ovarian = tested on: OVCAR-4 ovarian

NS(=O)(=O)c1ccc(Nc2cc(-c3cccc(O)c3)[nH]n2)cc1
GI50 (SF-295 CNS): > 25 µM | TGI (SF-295 CNS): > 25 µM | GI50 (UO-31 renal): > 25 µM | TGI (UO-31 renal): > 25 µM | GI50 (OVCAR-3 ovarian): 16.2 µM | TGI (OVCAR-3 ovarian): > 25 µM | GI50 (HS 578T breast): > 25 µM | TGI (HS 578T breast): > 25 µM | GI50 (UACC-62 melanoma): > 24.2 µM | TGI (UACC-62 melanoma): > 25 µM | GI50 (HT29 colon): > 25 µM | TGI (HT29 colon): > 25 µM | GI50 (HCT-15 colon): > 25 µM | TGI (HCT-15 colon): > 25 µM | GI50 (SK-OV-3 ovarian): > 25 µM | TGI (SK-OV-3 ovarian): > 25 µM | GI50 (CCRF-CEM leukemia): 8.04 µM | TGI (CCRF-CEM leukemia): > 25 µM | GI50 (OVCAR-5 ovarian): > 25 µM | TGI (OVCAR-5 ovarian): > 25 µM | GI50 (RPMI-8226 leukemia): > 25 µM | TGI (RPMI-8226 leukemia): > 25 µM | GI50 (CAKI-1 renal): > 25 µM | TGI (CAKI-1 renal): > 25 µM | GI50 (MOLT-4 leukemia): 13.4 µM | TGI (MOLT-4 leukemia): > 25 µM | GI50 (SF-268 CNS): > 25 µM | TGI (SF-268 CNS): > 25 µM | GI50 (SR leukemia): 24.2 µM | TGI (SR leukemia): > 25 µM | GI50 (SNB-19 CNS): > 25 µM | TGI (SNB-19 CNS): > 25 µM | GI50 (T-47D breast): 10 µM | TGI (T-47D breast): > 25 µM | GI50 (HOP-62 NSCLC): > 25 µM | TGI (HOP-62 NSCLC): > 25 µM | GI50 (SN12C renal): > 25 µM | TGI (SN12C renal): > 25 µM | GI50 (SF-539 CNS): 20.5 µM | TGI (SF-539 CNS): > 25 µM | GI50 (M14 melanoma): > 25 µM | TGI (M14 melanoma): > 25 µM | GI50 (LOX IMVI melanoma): > 25 µM | TGI (LOX IMVI melanoma): > 25 µM | GI50 (BT-549 breast): > 24.1 µM | TGI (BT-549 breast): > 25 µM | GI50 (SK-MEL-2 melanoma): > 25 µM | TGI (SK-MEL-2 melanoma): > 25 µM | GI50 (IGROV1 ovarian): > 25 µM | TGI (IGROV1 ovarian): > 25 µM | GI50 (NCI-H23 lung): > 25 µM | TGI (NCI-H23 lung): > 25 µM | GI50 (786-0 renal): > 25 µM | TGI (786-0 renal): > 25 µM | GI50 (MALME-3M melanoma): > 25 µM | TGI (MALME-3M melanoma): > 25 µM | GI50 (A549 NSCLC): > 25 µM | TGI (A549 NSCLC): > 25 µM | GI50 (KM12 colon): > 23.7 µM | TGI (KM12 colon): > 25 µM | GI50 (SK-MEL-5 melanoma): 14.8 µM | TGI (SK-MEL-5 melanoma): > 25 µM | GI50 (NCI-H460 lung): > 25 µM | TGI (NCI-H460 lung): > 25 µM | GI50 (HCC-2998 colon): > 25 µM | TGI (HCC-2998 colon): > 25 µM | GI50 (NCI/ADR-RES ovarian): > 25 µM | TGI (NCI/ADR-RES ovarian): > 25 µM | GI50 (NCI-H522 lung): 22.6 µM | TGI (NCI-H522 lung): > 25 µM | GI50 (SK-MEL-28 melanoma): > 25 µM | TGI (SK-MEL-28 melanoma): > 25 µM | GI50 (OVCAR-8 ovarian): > 22.6 µM | TGI (OVCAR-8 ovarian): > 25 µM | GI50 (TK-10 renal): > 25 µM | TGI (TK-10 renal): > 25 µM | GI50 (A498 renal): > 25 µM | TGI (A498 renal): > 25 µM | GI50 (U251 CNS): 24.4 µM | TGI (U251 CNS): > 25 µM | GI50 (K-562 leukemia): > 25 µM | TGI (K-562 leukemia): > 25 µM | GI50 (UACC-257 melanoma): > 25 µM | TGI (UACC-257 melanoma): > 25 µM | GI50 (EKVX NSCLC): > 25 µM | TGI (EKVX NSCLC): > 25 µM | GI50 (COLO 205 colon): > 25 µM | TGI (COLO 205 colon): > 25 µM | GI50 (MDA-MB-231 breast): 18 µM | TGI (MDA-MB-231 breast): > 25 µM | GI50 (MCF7 breast): > 25 µM | TGI (MCF7 breast): > 25 µM | GI50 (ACHN renal): > 25 µM | TGI (ACHN renal): > 25 µM | GI50 (RXF 393 renal): > 25 µM | TGI (RXF 393 renal): > 25 µM | GI50 (SNB-75 CNS): 24.5 µM | TGI (SNB-75 CNS): > 25 µM | GI50 (HCT-116 colon): > 25 µM | TGI (HCT-116 colon): > 25 µM | GI50 (NCI-H226 lung): > 25 µM | TGI (NCI-H226 lung): > 25 µM | GI50 (HOP-92 NSCLC): 10.2 µM | TGI (HOP-92 NSCLC): > 25 µM | GI50 (SW-620 colon): > 25 µM | TGI (SW-620 colon): > 25 µM | GI50 (MDA-MB-435): > 25 µM | TGI (MDA-MB-435): > 25 µM | GI50 (DU-145 prostate): > 25 µM | TGI (DU-145 prostate): > 25 µM | GI50 (HL-60(TB) leukemia): > 25 µM | TGI (HL-60(TB) leukemia): > 25 µM | GI50 (PC-3 prostate): > 25 µM | TGI (PC-3 prostate): > 25 µM | GI50 (OVCAR-4 ovarian): 13.5 µM | TGI (OVCAR-4 ovarian): > 25 µM
